EC50 data for 24 compounds are collected here from ChEMBL document CHEMBL1150212, “Antitumor agents, 129. Tannins and related compounds as selective cytotoxic agents” (1992).

Structures are written as SMILES. *1 amine or outer side, *2 acyl side, *3 side chain or, on linkers, in order; H or OH if unused. Where a SMILES comes first, the peptide text is derived from it. Bridges are numbered along the chain shown (N, C = ends). Roman numbers before positions name the chains, in order. [ ]: non-standard residue; d: D form. Actinocin(1to9) = Cc1c2oc3c(C)ccc(C(=O)[*:2])c3nc-2c(C(=O)[*:1])c(N)c1=O; NMeV = CN[C@H](C(=O)O)C(C)C; Sar = CNCC(=O)O

Format in all cases: functional
Holding throughout (settings): read-out: ED50 (the source's name)

Test [1] has as its system KB. Kind of test: Cytotoxicity against human KB cells by tetrazolium salt-based colorimetric assay.
In test [2] the test system is HCT-8. The test is described as follows: Cytotoxicity against human HCT8 cells by tetrazolium salt-based colorimetric assay.
Test [3] is described as follows: Cytotoxicity against human […] cells by tetrazolium salt-based colorimetric assay.
Test [4] has as its system TE-671. Kind of test: Cytotoxicity against human TE671 cells by tetrazolium salt-based colorimetric assay.
For test [5], the system named is A549. The test is described as follows: Cytotoxicity against human A549 cells by tetrazolium salt-based colorimetric assay.

In the case of `O=C(O[C@@H]1[C@@H](c2c(O)cc(O)c3c2O[C@H](c2ccc(O)c(O)c2)[C@H](OC(=O)c2cc(O)c(O)c(O)c2)C3)c2c(O)cc(O)c([C@H]3c4c(O)cc(O)cc4O[C@H](c4ccc(O)c(O)c4)[C@@H]3OC(=O)c3cc(O)c(O)c(O)c3)c2O[C@@H]1c1ccc(O)c(O)c1)c1cc(O)c(O)c(O)c1`, the EC50 in test [1] is over 10 µg/mL; in test [2] it was over 10 µg/mL; in test [3], 3.05 µg/mL; in test [4] it was over 10 µg/mL; in test [5], over 10 µg/mL.

For `O=C(O)C1=C[C@@H](O)[C@@H](O)[C@H](OC(=O)c2cc(O)c(O)c(O)c2)C1`, the EC50 in test [1], in test [2], in test [3], in test [4] and in test [5] was over 10 µg/mL in each case.

Turning to `O=C(O[C@H]1[C@H](O)C[C@](OC(=O)c2cc(O)c(O)c(O)c2)(C(=O)O)C[C@H]1OC(=O)c1cc(O)c(O)c(O)c1)c1cc(O)c(O)c(O)c1`, the EC50 in test [1], in test [2], in test [3], in test [4] and in test [5] was over 10 µg/mL each time.

For `O=C(O[C@@H]1C[C@](O)(C(=O)O)C[C@@H](OC(=O)c2cc(O)c(O)c(O)c2)[C@H]1OC(=O)c1cc(O)c(O)c(O)c1)c1cc(O)c(O)c(O)c1`, the EC50 in test [1], in test [2], in test [3], in test [4] and in test [5] was over 10 µg/mL each time.

`O=C(O[C@@H]1C[C@](OC(=O)c2cc(O)c(O)c(O)c2)(C(=O)O)C[C@@H](OC(=O)c2cc(O)c(O)c(O)c2)[C@H]1OC(=O)c1cc(O)c(O)c(O)c1)c1cc(O)c(O)c(O)c1`: the EC50 in test [1] is over 10 µg/mL; in test [2], over 10 µg/mL; in test [3] it was 0.43 µg/mL; in test [4], over 10 µg/mL; in test [5], over 10 µg/mL.

Turning to `O=C(O)C1=C[C@@H](O)[C@@H](O)[C@H](OC(=O)c2cc(O)c(O)c(OC(=O)c3cc(O)c(O)c(O)c3)c2)C1`, the EC50 in test [1], in test [2], in test [3], in test [4] and in test [5] was over 10 µg/mL in each case.

For the compound `O=C(O[C@@H]1[C@@H](c2c(O)cc(O)c3c2O[C@H](c2ccc(O)c(O)c2)[C@H](OC(=O)c2cc(O)c(O)c(O)c2)C3)c2c(O)cc(O)cc2O[C@@H]1c1ccc(O)c(O)c1)c1cc(O)c(O)c(O)c1`, the EC50 in test [1] is over 10 µg/mL; in test [2], over 10 µg/mL; in test [3] it was 3.45 µg/mL; in test [4] it was over 10 µg/mL; in test [5], over 10 µg/mL.

Turning to `O=C(O[C@H]1[C@H](O)C[C@](O)(C(=O)O)C[C@H]1O)c1cc(O)c(O)c(O)c1`, the EC50 in test [1], in test [2], in test [3], in test [4] and in test [5] was over 10 µg/mL each time.

`O=C(O[C@@H]1O[C@@H]2COC(=O)c3cc(O)c(O)c(O)c3-c3c(cc(O)c(O)c3O)C(=O)O[C@H]2[C@@H]2OC(=O)c3cc(O)c(O)c(O)c3-c3c(cc(O)c(O)c3O)C(=O)O[C@@H]12)c1cc(O)c(O)c(O)c1`: the EC50 in test [1] is over 10 µg/mL; in test [2], over 10 µg/mL; in test [3], 0.21 µg/mL; in test [4], over 10 µg/mL; in test [5] it was over 10 µg/mL.

As to `O=C(OC[C@H]1O[C@@H](OC(=O)c2cc(O)c(O)c(O)c2)[C@H](OC(=O)c2cc(O)c(O)c(O)c2)[C@@H](O)[C@@H]1O)c1cc(O)c(O)c(O)c1`, the EC50 in test [1], in test [2], in test [3], in test [4] and in test [5] was over 10 µg/mL each time.

With `O=C(OC[C@H]1O[C@@H](OC(=O)c2cc(O)c(O)c(O)c2)[C@H](OC(=O)c2cc(O)c(O)c(O)c2)[C@@H](OC(=O)c2cc(O)c(O)c(O)c2)[C@@H]1O)c1cc(O)c(O)c(O)c1`, the EC50 in test [1], in test [2], in test [3], in test [4] and in test [5] was over 10 µg/mL throughout.

As to `O=C(OC[C@H]1O[C@@H](OC(=O)c2cc(O)c(O)c(O)c2)[C@H](O)[C@@H](O)[C@@H]1OC(=O)c1cc(O)c(O)c(O)c1)c1cc(O)c(O)c(O)c1`, the EC50 in test [1], in test [2], in test [3], in test [4] and in test [5] was over 10 µg/mL each time.

For `O=C(OC[C@H]1OC(O)[C@@](O)(COC(=O)c2cc(O)c(O)c(O)c2)[C@@H]1OC(=O)c1cc(O)c(O)c(O)c1)c1cc(O)c(O)c(O)c1` (stereo partly specified), the EC50 in test [1], in test [2], in test [3], in test [4] and in test [5] was over 10 µg/mL each time.

Turning to `O=C1O[C@H]2[C@H](O)[C@@H](CO)OC(O)[C@@H]2OC(=O)c2cc(O)c(O)c(O)c2-c2c1cc(O)c(O)c2O` (stereo partly specified), the EC50 in test [1], in test [2], in test [3], in test [4] and in test [5] was over 10 µg/mL in each case.

Consider `O=C(O[C@@H]1O[C@H](CO)[C@@H](O)[C@H](O)[C@H]1O)c1cc(O)c(O)c(O)c1`, for which the EC50 in test [1], in test [2], in test [3], in test [4] and in test [5] was over 10 µg/mL in each case.

Regarding `O=C(O[C@H]1[C@H](O)C[C@](O)(C(=O)O)C[C@H]1OC(=O)c1cc(O)c(O)c(O)c1)c1cc(O)c(O)c(O)c1`, the EC50 was over 10 µg/mL in test [1]; over 10 µg/mL in test [2]; 0.53 µg/mL in test [3]; over 10 µg/mL in test [4]; over 10 µg/mL in test [5].

As to `O=C(OC[C@H]1O[C@@H](O)[C@H](OC(=O)c2cc(O)c(O)c(O)c2)[C@@H](OC(=O)c2cc(O)c(O)c(O)c2)[C@@H]1OC(=O)c1cc(O)c(O)c(O)c1)c1cc(O)c(O)c(O)c1`, the EC50 in test [1], in test [2], in test [3], in test [4] and in test [5] was over 10 µg/mL each time.

`O=C(O)c1cc(O)c(O)c(Oc2cc3c(c(O)c2O)-c2c(cc(O)c(O)c2O)C(=O)OC[C@H]2O[C@@H](OC(=O)c4cc(O)c(O)c(O)c4)[C@H](OC(=O)c4cc(O)c(O)c(O)c4)[C@@H](OC(=O)c4cc(O)c(O)c(O)c4)[C@@H]2OC3=O)c1`: the EC50 in test [1] is over 10 µg/mL; in test [2] it was over 10 µg/mL; in test [3], 0.44 µg/mL; in test [4], over 10 µg/mL; in test [5] it was over 10 µg/mL.

Turning to `O=C(O[C@@H]1O[C@@H]2COC(=O)c3cc(O)c(O)c(O)c3-c3c(cc(O)c(O)c3O)C(=O)O[C@H]2[C@@H]2OC(=O)c3cc(O)c(O)c(O)c3-c3c(cc(O)c(O)c3O)C(=O)O[C@@H]12)c1cc(O)c(O)c(Oc2c(O)c(O)c(O)c3c2C(=O)O[C@H]2[C@@H]4OC(=O)c5cc(O)c(O)c(O)c5-c5c(cc(O)c(O)c5O)C(=O)O[C@H]4[C@@H](OC(=O)c4cc(O)c(O)c(Oc5c(O)c(O)c(O)c6c5C(=O)O[C@H]5[C@@H]7OC(=O)c8cc(O)c(O)c(O)c8-c8c(cc(O)c(O)c8O)C(=O)O[C@H]7[C@H](OC(=O)c7cc(O)c(O)c(Oc8c(O)c(O)c(O)c9c8C(=O)O[C@H]8[C@@H]%10OC(=O)c%11cc(O)c(O)c(O)c%11-c%11c(cc(O)c(O)c%11O)C(=O)O[C@H]%10[C@@H](OC(=O)c%10cc(O)c(O)c(O)c%10)O[C@@H]8COC(=O)c8cc(O)c(O)c(O)c8-9)c7)O[C@@H]5COC(=O)c5cc(O)c(O)c(O)c5-6)c4)O[C@@H]2COC(=O)c2cc(O)c(O)c(O)c2-3)c1`, the EC50 is over 10 µg/mL in test [1]; over 10 µg/mL in test [2]; 0.5 µg/mL in test [3]; over 10 µg/mL in test [4]; over 10 µg/mL in test [5].

`O=C(OC[C@H]1O[C@@H](OC(=O)c2cc(O)c(O)c(O)c2)[C@H](O)[C@@H](O)[C@@H]1O)c1cc(O)c(O)c(O)c1`: the EC50 in test [1], in test [2], in test [3], in test [4] and in test [5] was over 10 µg/mL each time.

As for `O=C(O)C1=C[C@@H](OC(=O)c2cc(O)c(O)c(O)c2)[C@@H](O)[C@H](OC(=O)c2cc(O)c(O)c(O)c2)C1`, the EC50 in test [1], in test [2], in test [3], in test [4] and in test [5] was over 10 µg/mL each time.

As for `Oc1cc(O)c2c(c1)O[C@H](c1ccc(O)c(O)c1)[C@H](O)C2` [(-)-EPICATECHIN], the EC50 in test [1], in test [2], in test [3], in test [4] and in test [5] was over 10 µg/mL throughout.

Take `O=C1OC[C@H]2OC(=O)c3cc(O)c(O)c(O)c3-c3c(O)c(O)c(O)c4c3C(=O)O[C@H]([C@@H]3OC(=O)c5c-4c(O)c(O)c(O)c5[C@@H]3c3c(O)cc(O)c4c3O[C@H](c3ccc(O)c(O)c3)[C@@H](O)C4)[C@H]2OC(=O)c2cc(O)c(O)c(O)c2-c2c1cc(O)c(O)c2O` [ACUTISSIMIN A]: the EC50 in test [1] was over 10 µg/mL; in test [2] it was over 10 µg/mL; in test [3], 0.61 µg/mL; in test [4], over 10 µg/mL; in test [5], over 10 µg/mL.

For the compound `Cc1c2oc3c(C)ccc(C(=O)N[C@@H]4C(=O)N[C@H](C(C)C)C(=O)N5CCC[C@H]5C(=O)N(C)CC(=O)N(C)[C@@H](C(C)C)C(=O)O[C@@H]4C)c3nc-2c(C(=O)N[C@@H]2C(=O)N[C@H](C(C)C)C(=O)N3CCC[C@H]3C(=O)N(C)CC(=O)N(C)[C@@H](C(C)C)C(=O)O[C@@H]2C)c(N)c1=O` [DACTINOMYCIN] (I: T[dV]P[Sar][NMeV] / II: T[dV]P[Sar][NMeV]; ester I:1-I:C, II:1-II:C; linker I:N-II:N via Actinocin(1to9)), the EC50 in test [3] was under 0.01 µg/mL.
